Assays:
HAS2 gene [1] = test: Quantitative RT-PCR of HAS2 mRNA in keratinocyte cell line HaCaT; assay type: cell-based, human; settings: HaCaT cells; for increase in HAS2 transcription: 1 μM compound K
Description: (§1) The cells were cultured in Dulbecco's modified Eagle's medium (DMEM) supplemented with 10% fetal bovine serum (HyClone), sodium bicarbonate (3.6 g/l) and antibiotics of streptomycin (100 μg/ml) and penicillin (100 U/ml) (Life Technologies, Inc.) at 37° C. in a humidified atmosphere containing 5% CO2 and 95% air. The culture was changed with fresh medium every 3 days. On reaching the maximum cell-density, the cells were recultured at a 1:5 division ratio. 48 hours before treatment with compound K, the cells were seeded into a tissue culture flask at 1×10^5 cells per 75 cm^2 and cultured in the medium with 10% fetal bovine serum for 24 hours. Subsequently, the cells were cultured in the serum-free medium for another 24 hours and then in fresh serum-free medium supplemented with 1 to 5 μM of compound K for 3, 6, 12, 24 or 48 hours. As a control, the cells were cultured in the medium supplemented with 0.01% vehicle (dimethylsulfoxide, DMSO). In the control, no effect of DMSO on cell growth and differentiation was observed.
(§2) HaCaT cells and HDF cells were washed twice with phosphate buffered saline (PBS) (Life Technologies, Inc.), and total cellular RNA was isolated with TRizol® reagent (GibcoBRL Life Technologies, Grand Island, N.Y.) according to manufacturer's instructions. RNA concentration was measured by spectrophotometry and RNA integrity was checked by agarose gel electrophoresis.
Quantitated total RNA was reverse transcribed, then RT-PCR was performed using HAS1-, HAS2- and HAS3-specific primers. In brief, 4 μg of total RNA was reverse transcribed in 25 μl of reaction mixture containing 2.5 U/μl Superscript II reverse transcriptase (Invitrogen, Carlsbad, Calif.), 1 U/μg RNase inhibitor, 5 mM MgCl2, 50 mM KCl, 10 mM Tris-HCl (pH8.3), 2.5 μM oligo(dT) primers and 1 mM dNTPs. The reaction mixture was gently incubated at 42° C. for 60 min, to be subjected to reverse transcription. Then, the reverse transcriptase was inactivated by heating at 85° C. for 5 min.
Subsequently, 5 μl of the resulting mixture was subjected to PCR. […]

HAS3 = test: Quantitative RT-PCR of HAS3 mRNA in HaCaT cells; assay type: cell-based, human; settings: 1 μM compound K, 24 or 48 hours
Description: as §1, with “As a control, the cells were cultured in the medium supplemented with 0.01% vehicle (dimethylsulfoxide, DMSO). In the control, no effect of DMSO on cell growth and differentiation was observed.” left out
as §2
(§3) Quantitated total RNA was reverse transcribed, then RT-PCR was performed using HAS1-, HAS2- and HAS3-specific primers. […]

HAS2 gene [2] = test: Quantitative RT-PCR of HAS2 mRNA in fibroblast cell line HDF; assay type: cell-based, human; settings: HDF cells, treatment with compound K for 24 hours, in comparison with no treatment
Description: as §1, with “As a control, the cells were cultured in the medium supplemented with 0.01% vehicle (dimethylsulfoxide, DMSO). In the control, no effect of DMSO on cell growth and differentiation was observed.” left out
as §2, §3

HAS1 = test: Quantitative RT-PCR of HAS1 mRNA in HaCaT cells; assay type: cell-based, human; settings: 1 μM compound K, 24 or 48 hours
Description: as §1, with “As a control, the cells were cultured in the medium supplemented with 0.01% vehicle (dimethylsulfoxide, DMSO). In the control, no effect of DMSO on cell growth and differentiation was observed.” left out
as §2, §3

human skin = test: Clinical trial of skin-care efficacy of emulsion containing compound K; assay type: in vivo
Description: In order to evaluate the efficacy of the cosmetic composition containing compound K, a clinical trial was conducted with forty-nine (49) healthy Korean females aged from 31 to 37 years and having facial wrinkle and fine wrinkle. They were divided into three groups by skin type: normal skin, dry skin and combination skin and used two kinds of oily-water emulsions containing 0.03% compound K or none. Before the trial, all the volunteers were evaluated for facial wrinkle and fine wrinkle with a global photodamage score. All the scores were obtained before use and 4, 8 and 12 weeks after use. Each volunteer applied test samples onto the facial skin twice per day (morning and evening) at their homes, and particularly onto the wrinkles of the eye rims. Skin-care efficacies such as facial wrinkle, fine wrinkle, hydration, elasticity, smoothness, roughness and brightness were evaluated by the volunteers and skin expert inspectors. Difference before and after using topical samples and improvement were determined by photometry evaluation with Camscope® (model DCS-105) and by image analysis of silicon replica with Skin-Visiometer SV 600 (Courage & Khazaka, Germany).

HDF cells = test: Hyaluronic acid production in cultured HDF cells, bHABP immunocytochemical staining; assay type: cell-based, human; settings: 1 μM compound K, immunocytochemical method
Description: (§4) HaCaT and HDF cells were washed with PBS then fixed in a fixative with 2% paraformaldehyde(v/v) and 0.5% glutaraldehyde(v/v) at room temperature for 20 min. After fixation, the cells were washed three times for 2 min each with 0.1 M sodium phosphate buffer (pH7.4), then blocked in 1% bovine serum albumin (w/v) containing 0.1% Triton X-100 (v/v) in the same buffer at room temperature for 30 min. Hyaluronan staining was carried out with a specific probe of biotinylated hyaluronan binding protein (bHABP) (Seikagaku, Tokyo, Japan). The bHABP probe, diluted to 5 μg/ml in 3% bovine serum albumin (w/v), was added to the fixed cells and was incubated overnight at 4° C. After washing, avidin-fluorescein isothocyanate (FITC) was added.
(§5) HaCaT cells (FIG. 3a, FIG. 3b) and HDF cells (FIG. 3c, FIG. 3d) were cultured in the presence of 1 μM compound K (FIG. 3b, FIG. 3d) or in the absence of compound K (FIG. 3a, FIG. 3c).

HaCaT cells = test: Hyaluronic acid production in cultured HaCaT cells, bHABP immunocytochemical staining; assay type: cell-based, human; settings: 1 μM compound K, immunocytochemical method
Description: as §4, §5

hairless mouse skin = test: Production of hyaluronic acid in hairless mouse skin, bHABP immunohistochemical staining and image analysis; assay type: in vivo; settings: hairless mouse back skin, 1%(w/v) compound K solution topically
Description: Male albino Hos:hr-1 mice, 30 weeks old, were purchased from Biogenomics (Seoul, Korea) and had unrestricted access to standard rodent chow and water. After one week of acclimation under controlled conditions of 24±2° C. and 55±10% humidity, 200 μl of 1%(w/v) compound K solution in the vehicle (1,3-BG:ethanol-7:3) was topically applied onto the back of the mouse two times for 2 days. 24 hours after the final administration, each skin sample was collected.
Hyaluronan staining was carried out with bHABP(Seikagaku). Each skin sample was fixed with 2% formaldehyde and 0.5% glutaraldehyde in PBS, embedded and sectioned. After deparaffinization, sections were incubated in 0.3% H2O2 in methanol at room temperature for 30 min, washed with PBS, then blocked in 1% bovine serum albumin. Subsequently the sections were incubated in […] bHABP in PBS at 4° C. then, after washing, incubated with streptoavidin-peroxidase, diluted to 1/300 in PBS at room temperature, for 30 min. […]
Stained slides were quantitatively characterized via digital image analysis using ImagePro-Plus (Media Cybernetics, Silver Spring, Md.). […] Staining score is determined by the following formula 1: Intensity of stain X (total stained area/total area) Equation 1
One-way ANOVA with post-hog Duncan test was performed using SigmaStat (SPSS Inc., Chicago, Ill.). Data were expressed as the mean±SEM. […]

[3] = emulsion with 0.03% compound K, after 8 weeks of use

**Q.** For `CC(C)=CCC[C@](C)(OCC1OC(CO)C(O)C(O)C1O)C1CC[C@]2(C)C1C(O)CC1C3(C)CCC(O)C(C)(C)C3CCC12C` (stereo partly drawn) [compound K, 20-O-β-D-glucopyranosyl-20(S)-protopanaxadiol], which “increase in HAS2 transcription” value (HAS2 gene [1]; 24 hours incubation) is on record?
**A.** The value was “about 3 times”.

**Q.** And the “increase in HAS2 transcription” value (HAS2 gene [1]; 48 hours incubation)?
**A.** Its value is “about 5 times”.

**Q.** What about the “increase in HAS2 gene expression (HAS2 mRNA) versus control” value (HAS2 gene [1]; treatment with compound K for 24 hours, in comparison with no treatment) of the same compound?
**A.** Its value is 3 times.

**Q.** And the “effect on HAS3 mRNA level” value (HAS3)?
**A.** The value was “did not influence”.

**Q.** What about the “increase in HAS2 gene expression (HAS2 mRNA) versus control” value (HAS2 gene [2]) of the same compound?
**A.** Its value is 2.5 times.

**Q.** What about the “effect on HAS1 mRNA level” value (HAS1) of the same compound?
**A.** The value was “did not influence”.

**Q.** And the “wrinkle, hydration, elasticity, smoothness and brightness of human skin” value (human skin; compound K-containing topical composition applied onto the human skin)?
**A.** The value was “improved”.

**Q.** And the “volunteers answering improvement in skin brightness” value (human skin; emulsion with 0.03% compound K)?
**A.** The value was 68%.

**Q.** What about the “volunteers answering improvement in skin elasticity” value (human skin; emulsion with 0.03% compound K) of the same compound?
**A.** The value was 68%.

**Q.** What about the “volunteers answering improvement in skin roughness” value (human skin; emulsion with 0.03% compound K) of the same compound?
**A.** Its value is 94%.

**Q.** And the “volunteers answering improvement in skin smoothness” value (human skin; emulsion with 0.03% compound K)?
**A.** The value was 92%.

**Q.** What about the “volunteers answering increase in skin moisturizing capacity” value (human skin; emulsion with 0.03% compound K) of the same compound?
**A.** Its value is 88%.

**Q.** And the “facial wrinkle and fine wrinkle, global photodamage score by skin expert inspectors” value (human skin; emulsion with 0.03% compound K twice per day on facial skin, 12 weeks of use versus initial values and control emulsion)?
**A.** The value was “statistically significant decrease”.

**Q.** And the “total wrinkle in skin replica analysis” value (human skin; [3])?
**A.** The value was “decreased statistically significantly”.

**Q.** And the “volunteers giving positive and affirmative estimate” value (human skin; [3])?
**A.** The value was 76%.

**Q.** What about the “volunteers giving positive and affirmative estimate” value (human skin; emulsion with 0.03% compound K, after 12 weeks of use) of the same compound?
**A.** Its value is 92%.

**Q.** What about the “production of hyaluronic acid in cultured cells” value (HDF cells) of the same compound?
**A.** Its value is “increased production of hyaluronic acid was confirmed”.

**Q.** And the “production of hyaluronic acid in cultured cells” value (HaCaT cells)?
**A.** Its value is “increased production of hyaluronic acid was confirmed”.

**Q.** And the “hyaluronic acid in skin (immunohistochemical staining)” value (hairless mouse skin)?
**A.** The value was “significantly increased”.

From patent publication US8173607B2, “Promoter for the production of hyaluronic acid containing ginsenoside compound K” (Amorepacific Corporation, priority 2002, dated 2012)
